Legend:
[1] = system: PC12 cells differentiated by NGF; experiment: Neurite retraction in NGF-differentiated PC12 cells caused by anticancer agents; format: cell-based, rat; conditions: 24 hours; for neurite retraction caused by oxaliplatin: oxaliplatin 20 μM
Method: Rat adrenal gland pheochromocytoma-derived PC12 cells are known to be differentiated into neuron-like cells having neurites by nerve growth factor (NGF) and are widely used as a nerve cell model. To assess the neurite-protective action of PC-SOD, the effect of PC-SOD in neurite disorder caused by various anticancer agents was analyzed by using PC12 cells differentiated by NGF.
PC12 cells were seeded on a 24-well plate coated with collagen at 5 000 cells/well. […] The images of cells were captured by using a microscope (BZ-X800, Keyence Corporation), and the neurite lengths were measured by using an image analysis software ImageJ (NIH).
(§1) PC12 cells were seeded on a 24-well plate coated with collagen at 5 000 cells/well. […] After neurite elongation, cells were cultured by using differentiation media each containing carboplatin (with a final concentration of 50 μM) alone or carboplatin and PC-SOD (with final concentrations of 10, 20, 50, and 100 μg/mL) for 24 hours. The images of cells were captured by using a microscope (BZ-X800, Keyence Corporation), and the neurite lengths were measured by using an image analysis software ImageJ (NIH).
as §1, with “containing paclitaxel (abbreviated as PTX in the figure of results) alone” for “containing carboplatin”, “of 0.1” for “of 50”, “μM)” for “μM) alone”, “or paclitaxel” for “or carboplatin”, “10,” for “10, 20,”

[2] = system: L5 DRG neurons of OXA-treated rats; experiment: Assessment of pathological damage to DRG (HE staining); format: in vivo, rat; conditions: OXA+PC-SOD 1 mg/kg; FIG. 4
Text: A tissue of L5 DRG neuron was collected, stored in a 10% neutral buffered formalin solution, fixed, and then washed with PBS. The tissue was subjected to 70% ethanol substitution to prepare a paraffin block, and the block was thinly sliced and subjected to HE staining. The thickness of the thinly sliced sample block was from 2 to 3 μm. By using the prepared pathological sample slide, one to three images of each sample were captured at 200 and 400-fold magnifications by the optical microscope function of All-in-One Fluorescence Microscope (BZ-X800, Keyence Corporation). Multinucleation of the nucleolus of DRG neurons and abnormal morphology of the nucleolus were assessed as indicators of DRG neuron disorder (Scale bar=50 μm).

[3] = system: Large intestine cancer cells (colo320, HCT116); experiment: Proliferation of large intestine cancer cells (CCK-8); format: cell-based; conditions: OXA dilutions + PC-SOD 50 μg/mL, 72 hours; FIG. 6
Method: Large intestine cancer cells (colo320, HCT116) were added to RPM1640 medium (Thermo Fisher Scientific Inc.) containing 10% fetal bovine serum and 100 units/mL penicillin-streptomycin (Gibco BRL) and cultured at 37° C. in a 5% CO2 incubator.
Cells were seeded on a 96-well plate at 10 000 cells/well and treated with a test solution 24 hours later. A test solution containing OXA alone was diluted 3-fold from 100 μM (10 levels) and added to a 96-well plate. A test solution containing OXA+PC-SOD was obtained by adding the same concentrations of OXA to PC-SOD (50 μg/mL) (n=3 per group). After cells were cultured for 72 hours, a CCK-8 solution was added in a volume of 1/10 of the solution in each well, and the mixture was measured at 490 nm of absorbance (Tecan, Tecan Japan). Data were expressed with mean±standard error (SEM). It should be noted that experiment conditions were allowed to be changed as required.

RAW cells = experiment: Active oxygen production in RAW cells (MitoSOX Red); format: cell-based; conditions: gemcitabine, oxaliplatin, cisplatin or carboplatin with simultaneous PC-SOD, 16 hours; FIG. 13-2
Method: RAW cells were seeded on a 96-well plate for fluorescence at 20 000 cells/well (D-MEM high glucose medium containing 10% inactivated FBS). […] Sixteen hours later, cells were treated with an HBSS solution containing dissolved MitoSOX™ Red Mitochondrial Superoxide Indicator (Invitrogen™) for 30 minutes, and the medium was replaced with D-MEM high glucose medium containing 1% inactivated FBS. Active oxygen production in mitochondria was determined by measuring fluorescence (Ex 510 nm, Em 580 nm) by using a plate reader (Infinite M Plex, Tecan). Cells for four wells were analyzed for each group.

[4] = system: OXA-induced allodynia model rats; experiment: Cold stimulation (acetone) test in OXA-induced allodynia model rats; format: in vivo, rat; conditions: OXA 10 mg/kg i.p. Days 1 and 2; PC-SOD 1 mg/kg caudal vein, prophylactic; FIG. 2
Method: Five-week-old male SD rats (from 200 to 400 g) were used as laboratory animals, and OXA was administered into the peritoneal cavity of rats at a dose of 10 mg/kg. A total of two doses were given (Days 1 and 2). A solvent for OXA, i.e., a 5% glucose solution, was similarly administered to a control group.
Laboratory animals were divided into three groups (n=8 per group): a control group, an OXA administration group, and a group receiving administration of OXA and PC-SOD 1 mg/kg (OXA+PC-SOD administration group). For the OXA+PC-SOD administration group, PC-SOD was administered into the caudal vein from 15 minutes after administration of OXA as prophylactic administration. A total of two doses were given (Days 1 and 2). A solvent for PC-SOD was similarly administered to the control group and the OXA administration group.
Rats were placed in a container with a wire net bottom and acclimatized for 30 minutes, and then 0.1 mL of acetone was sprayed onto their hindlimb by using a spray for an organic solvent (No. 3530, Furupla Co., Ltd.) to give a cold stimulus by utilizing a cooling action at the time of vaporization of acetone. […] Specifically, the responses were assessed by scoring with four levels (Scores 0, 1, 2, and 3). Score 0 was to be given if animals were unresponsive as in a resting state. […]

Question: With “lecithinized superoxide dismutase [PC-SOD]” as the substance, how does the “neurite retraction caused by carboplatin” value ([1]; carboplatin 50 μM, PC-SOD 10, 20, 50, 100 μg/mL, FIG. 7-2) read?
Answer: suppressed by simultaneous addition of PC-SOD dependently on the PC-SOD concentration

Question: What about the “neurite retraction caused by cisplatin” value ([1]; cisplatin 33 μM, PC-SOD 10, 50, 100 μg/mL, FIG. 7-1) of the same substance?
Answer: significantly suppressed as compared with addition of cisplatin alone

Question: And the “neurite retraction caused by oxaliplatin” value ([1]; PC-SOD 10, 50, 100 μg/mL, FIG. 7-1)?
Answer: markedly suppressed by simultaneous addition of PC-SOD dependently on the PC-SOD concentration

Question: And the “neurite retraction caused by oxaliplatin” value ([1]; test substance 50 μg/mL, FIG. 8)?
Answer: suppressed almost completely

Question: And the “neurite retraction caused by paclitaxel” value ([1]; paclitaxel 0.1 μM, PC-SOD 10, 50, 100 μg/mL, FIG. 7-3)?
Answer: suppressed by simultaneous addition of PC-SOD dependently on the PC-SOD concentration

Question: What about the “pathological damage to DRG caused by OXA (multinucleation and abnormal morphology of nucleoli)” value [2] of the same substance?
Answer: a suppressive effect on pathological damage to DRG caused by OXA was shown

Question: What about the “influence on the anti-tumor effect of oxaliplatin (cell proliferation)” value [3] of the same substance?
Answer: did not affect the anti-tumor effect of oxaliplatin

Question: And the “anticancer agent-dependent production of active oxygen in RAW cells” value (RAW cells)?
Answer: significantly suppressed the anticancer agent-dependent production of active oxygen dependently on the concentration of PC-SOD

Question: And the “increase in score for cold stimulus (acetone test)” value [4]?
Answer: significantly suppressed

Source: patent publication US20240261375A1, “PHARMACEUTICAL COMPOSITION FOR TREATING OR PREVENTING DISORDER ASSOCIATED WITH ADMINISTRATION OF ANTICANCER AGENT” (LTT BIO-PHARMA CO., LTD., priority 2021, published 2024)
